Test results published in article PMC11123961, “Design, Synthesis, and Biological Evaluation of the Quorum-Sensing Inhibitors of Pseudomonas aeruginosa PAO1” (Molecules, 2024).

Legend:
[1] = Pharmacokinetics in male CD1 mice; format: in vivo
Protocol: Beijing Pharmaron Inc. carried out pharmacokinetic studies relating to compound Y-31 in mice. All of the animals were kept in a pathogen-free barrier animal facility, and the company’s Animal Care and Use Committee approved the experiments. On the day of administration, the sample solution was made into a 5, 20 mg/kg solution. Following a single dosage of compound Y-31 either intravenously (5 mg/kg, IV) or orally (20 mg/kg, PO) at 0.25, 0.5, 1, 2, 4, 6, 8, and 24 h post-administration, blood samples were taken from CD1 male mice (n = 3). After that, the plasma was centrifuged for […] at 4000 g and 4 °C to yield. The plasma was diluted 3 times with water. For quantitative analysis, a measurement of 2 µL of diluted supernatant was put into the LC/MS/MS apparatus. […] Phoenix WinNonlin 8.0 software was applied to calculate the pharmacokinetic parameters.

RAW 264.7 cells = test: Cytotoxicity test, CCK8; format: cell-based, mouse; conditions: 162.50, 81.25 and 40.00 μM, 12 h
Protocol: The cell line used in this study was mouse mononuclear macrophage leukemia cell RAW 264.7. The cells were cultured in DMEM complete medium (basal medium containing 10% fetal bovine serum, 100 U/mL penicillin, and […] streptomycin) at 37 °C in a 5% CO2 incubator. When the cells covered 80% of the bottom of the plate, they were passaged more than three times.
Adherent RAW 264.7 cells were digested to detach the cells. Digestion was stopped via the addition of PBS and centrifuging at 1000 rpm for 5 min. The supernatant was discarded, and the cells were resuspended in 1 mL of medium for cell counting. Based on the counting results, the cell suspension was diluted. Then, 100 μL of the diluted cell suspension was added to a 96-well plate, with approximately 1 × 10^4 cells per well. The cells were then placed in the incubator to allow for adherence.
One well without cells received 100 μL of complete medium as a blank control, and one well with cells received 100 μL of complete medium as a negative control. […]
After incubation, the medium was removed, and 100 μL of 10% CCK8 solution was added to each well. The absorbance at 450 nm (OD450) was measured at 0.5 h, 1 h, and 2 h until OD450 = 1.
Cell viability was calculated using the following formula: cell activity = (OD450 compound − OD450 blank)/(OD450 negative control − OD450 blank) x 100%

[2] = system: P. aeruginosa PAO1 pyocyanin; test: Pyocyanin quantification assay; format: cell-based, Pseudomonas aeruginosa
Protocol: The method used to perform the pyocyanin quantification assay was previously reported. In short, P. aeruginosa PAO1 was cultivated in LB medium to reach the logarithmic growth phase at 37 °C and 150 rpm. Following this, the medium (2% peptone, 1% K2SO4, 0.3% MgCl2) was diluted 10 times. A 5 mL bacterial culture containing and excluding the compound (162.5 μM, 81.25 μM, and 20 μM) was incubated for 16 h at 37 °C at 150 rpm. The culture was centrifuged at 1665 g for 10 min in order to extract pyocyanin. The supernatant was then collected and extracted using 3 mL of chloroform. The upper aqueous phase was then collected via centrifugation at 1665 g for 10 min after 1 mL of 0.2 M HCl was combined with the chloroform layer. Absorbance was measured at 520 nm. The pyocyanin inhibition rate was calculated as follows = (OD520 blank − OD520 sample)/OD520 blank × 100%.

[3] = system: wildtype Caenorhabditis elegans N2 infected with P. aeruginosa PAO1; test: C. elegans survival assay; format: in vivo
Excerpt: 3.2.7. C. elegans Survival Assay
The negative control was the PGS agar plate coated with E. Coli OP50. Next, 50 wildtype C. elegans N2 strain-synchronized nematodes (L4 stage) were chosen and placed onto the plates. […] When the nematodes in the study were immobile, they were deemed dead. The number of nematodes that survived was tabulated to generate a survival curve.

[4] = system: P. aeruginosa PAO1 rhamnolipid; test: Rhamnolipid quantification assay (orcinol); format: cell-based, Pseudomonas aeruginosa
Protocol: The rhamnolipid quantification assay was as follows: sulfuric acid–orcinol concentrated solution was used to examine the compound’s impact on P. aeruginosa PAO1 rhamnolipid. Initially, 50 μg/mL, 100 μg/mL, 200 μg/mL, and 400 μg/mL of a prepared solution of rhamnose standard at a concentration of 1 mg/mL in tilled water were diluted. Subsequently, 900 μL of 0.19% orcinol-concentrated sulfuric acid solution (0.19% orcinol (w/v), 50% H2SO4) was mixed with 100 μL of each concentration of rhamnose standard solution, and the mixture was incubated for 30 min at 80 °C in a water bath. After cooling to 25 °C, the OD value at 421 nm was measured. A standard curve of rhamnose concentration–absorbance values was established using Excel software 2019.
After cultivating P. aeruginosa PAO1 in LB medium for a logarithmic growth phase at 37 °C and 150 rpm, the bacterial culture was diluted with PPGAS solution (20 mM KCl, 20 mM NH4Cl, 0.5% glucose, 1.6 mM MgSO4, 120 mM Tris-HCl, and 1.0% peptone) to OD600 = 0.05. […] After centrifuging the bacterial cultures for 10 min at 1665 g, the supernatants were gathered. After extracting the supernatants twice using ethyl acetate, the organic layers were gathered and allowed to dry out at room temperature overnight. After resuspending the solid product in deionized water, 100 μL was added to 900 μL of 0.19% orcinol in 50% H2SO4, and the mixture was incubated for 30 min at 80 °C in a water bath. After cooling to 25 °C, the OD value at 421 nm was measured. The rhamnolipid content in the sample was determined according to a rhamnose standard curve (rhamnolipid content = 2.5 × rhamnose content).

[5] = mouse, plasma, IV, 5 mg/kg, male CD1 mice
[6] = mouse, plasma, PO, 20 mg/kg, male CD1 mice

Structure (SMILES): O=C(CCCOc1ccc(I)cc1)NN1CCCOC1=O [Y-31]
- AUC [1, 5]: 935 ng·h/mL
- Cmax [1, 5]: 3290 ng/mL
- Tmax [1, 5]: 4.8 min
- half-life [1, 5]: 7.8 min
- bioavailability ([1]; mouse, plasma, PO, 20 mg/kg vs IV 5 mg/kg, male CD1 mice, read-out: F (bioavailability)): 30.4%
- AUC [1, 6]: 1100 ng·h/mL
- Cmax [1, 6]: 1280 ng/mL
- Tmax [1, 6]: 15 min
- half-life [1, 6]: 311 min
- Clinical symptoms during the pharmacokinetic trial ([1]; single dose 5 mg/kg IV or 20 mg/kg PO, CD1 male mice): no unusual clinical symptoms were noticed
- Cytotoxicity towards RAW 264.7 cells (cell viability) (RAW 264.7 cells): did not exhibit significant cytotoxicity
- Inhibition rate of pyocyanin ([2]; 162.5 μM): 22.5%
- inhibition at 40 µM ([2]; Pseudomonas aeruginosa, PAO1, read-out: Inhibition rate of pyocyanin, 40 μM): 10%
- inhibition at 81.5 µM ([2]; Pseudomonas aeruginosa, PAO1, read-out: Inhibition rate of pyocyanin, 81.5 μM): 17.1%
- inhibition at 162.5 µM ([2]; Pseudomonas aeruginosa, PAO1, read-out: Inhibition rate of pyocyanin, 162.5 μM): 22.5%
- Average survival rate of infected nematodes, Y-31 combined with Tob compared with Y-31 or Tob alone ([3]; Y-31 162.5 μM + Tob 0.25 μg/mL): significantly improved
- Improvement of the survival rate of infected nematodes (average) ([3]; after 48 h, agent alone: Y-31 162.5 μM, Tob 0.25 μg/mL): 9.33%
- Inhibition rate of rhamnolipid ([4]; 162.5 μM): 6.1%
- inhibition at 40 µM ([4]; Pseudomonas aeruginosa, PAO1, read-out: Inhibition rate of rhamnolipid, 40 μM): 0.4%
- inhibition at 81.5 µM ([4]; Pseudomonas aeruginosa, PAO1, read-out: Inhibition rate of rhamnolipid, 81.5 μM): 5.8%
- inhibition at 162.5 µM ([4]; Pseudomonas aeruginosa, PAO1, read-out: Inhibition rate of rhamnolipid, 162.5 μM): 6.13%
